What was measured:
[1] = system: ALK5 (Alk5p, cytochrome P450 CYP52); test: In vitro enzymatic assay: conversion of radiolabeled fatty acids by microsomes of S. cerevisiae WAT11 expressing ALK5 (TLC); conditions: yeast microsomes, NADPH; for Degree of conversion (%): gene ALK5, substrate 100 μM, ND: not detectable
Description: (§1) In order to confirm their hypotheses according to which these enzymes catalyze fatty acids by oxygenation reaction, the inventors performed a screening using microsomes of S. cerevisiae WAT11 yeast transformed with 6 of the genes of the CYP52 family, cloned into Yarrowia lipolytica: ALK2, ALK3, ALK4, ALK5, ALK6 and ALK11.
(§2) The incubations were carried out on the model substrate constituted by lauric acid (C12.0), in the presence of NADPH.
(§3) The reaction mixtures were deposited on TLC plates, and then developed and analyzed.
(§4) In order to study the substrate specificity of these enzymes, the inventors incubated each microsomal preparation with free fatty acids of different size and at various levels of unsaturation (for example, myristic acid—C14:0, palmitic acid—C16:0, stearic acid—C18:0, oleic acid—C18:1 and linoleic acid—C18:2).
(§5) The expression of the proteins of the 6 members of the 6YP52 family cloned was carried out using a heterologous system specifically designed for the expression of cytochrome P450 enzymes, based on the pYeDP60 vector and the Saccharomyces cerevisiae WAT11 strain. The WAT11 strain was transformed with each of the pYeDP60 constructs using the lithium acetate LiAc method. The transformants were selected by plating out on YNB plates lacking uracil. The yeasts are left in culture and the expression of cytochrome P450 was induced as described in Pompon et al., 1996. For each transformant, the microsomes were prepared by manually breaking the cells using glass beads (0.45 mm in diameter) in 50 mM of a Tris-HCl buffer (pH 7.5) containing 1 mM EDTA and 600 mM of sorbitol. The homogenate was subjected to centrifugation (10 000 g-15 min) and the resulting supernatant was subjected to ultracentrifugation (100 000 g-1 h). The microsome pellet was resuspended in 50 mM Tris-HCl (pH 7.4), mM EDTA and 30% (v/v) of glycerol with a Potter-Elvehjem homogenizer. The volume of buffer used for resuspending the microsomes was determined by the approximate weight of the wet pellet of yeast obtained after growth (1 ml of buffer per 2 g of cell pellet). The total concentrations of protein in the microsomes were estimated using the Bradford test and homogenized at 15 mg/ml using the appropriate volume of resuspension buffer. The microsome preparation was stored at −20° C. All the experiments for the microsome preparations were carried out between 0 and 4° C.
(§6) The activity of the cytochrome P450 enzymes was evaluated in vitro using various radiolabeled fatty acids. The standard test (0.1 ml) contained […] sodium phosphate (pH 7.4), […] NADPH, a radiolabeled substrate (100 μM) and 0.15 mg of microsomal protein. The reactions were carried out in a waterbath at 27° C. with continuous shaking. The reaction is initiated by adding NADPH and stopped after 20 min by adding 20 μl of acetonitrile containing 0.2% of acetic acid.
(§7) The reaction mixtures were deposited directly on TLC plates covered with silica in order to separate the incubation products from the initial substrate. The plates were developed using an ether/petroleum ether/formic acid mixture (50:50:1, v/v/v). The plates were scanned using a radioactivity detector. The chromatograms resulting from the TLC make it possible to determine the degrees of conversion for each cytochrome P450/fatty acid combination, based on the radioactivity detected by the reader. The mobility of the products on the TLC plate is a good indication of the type of oxygenation reaction that was carried out on the substrate (i.e. hydroxylation, epoxidation, diacid formation).

[2] = system: ALK2 (Alk2p, cytochrome P450 CYP52); test: In vitro enzymatic assay: conversion of radiolabeled fatty acids by microsomes of S. cerevisiae WAT11 expressing ALK2 (TLC); conditions: yeast microsomes, NADPH; for Degree of conversion (%): gene ALK2, substrate 100 μM, ND: not detectable
Description: as §1, §2, §3, §4, §5, §6
as §7, with “The mobility of the products on the TLC plate is a good indication of the type of oxygenation reaction that was carried out on the substrate (i.e. hydroxylation, epoxidation, diacid formation).” left out

[3] = system: ALK11 (Alk11p, cytochrome P450 CYP52); test: In vitro enzymatic assay: conversion of radiolabeled fatty acids by microsomes of S. cerevisiae WAT11 expressing ALK11 (TLC); conditions: yeast microsomes, NADPH; for Degree of conversion (%): gene ALK11, substrate 100 μM, ND: not detectable
Description: as §1, §2, §3, §4
as §5, with “The microsome preparation was stored at −20° C. All the experiments for the microsome preparations were carried out between 0 and 4° C.” left out
(§8) The activity of the cytochrome P450 enzymes was evaluated in vitro using various radiolabeled fatty acids. […]
The reaction mixtures were deposited directly on TLC plates covered with silica in order to separate the incubation products from the initial substrate. […] The plates were scanned using a radioactivity detector. The chromatograms resulting from the TLC make it possible to determine the degrees of conversion for each cytochrome P450/fatty acid combination, based on the radioactivity detected by the reader. […]

[4] = system: ALK3 (Alk3p, cytochrome P450 CYP52); test: In vitro enzymatic assay: conversion of radiolabeled fatty acids by microsomes of S. cerevisiae WAT11 expressing ALK3 (TLC, GC-MS); conditions: NADPH; for Products of conversion by Alk3p seen in TLC chromatograms: fresh microsomes, standardized total protein, duplicate; for Degree of conversion (%): gene ALK3, substrate 100 μM, ND: not detectable; for Reaction product of Alk3p identified by GC-MS (first product peak) / Reaction product of Alk3p identified by GC-MS (second peak, diacid): incubation with Alk3p microsomes, GC-MS of methylated/TMS derivatives
Description: as §1, §2, §3, §4
Preparations of fresh microsomes of yeast expressing Alk3p were carried out. The inventors standardized the total protein content and performed new incubations with lauric acid and palmitic acid and also the abovementioned three C18 fatty acids (stearic acid, oleic acid and linoleic acid). All the reactions were carried out in duplicate in the presence of NADPH for analysis by TLC and GC-MS.
as §5, §6
The reaction mixtures were deposited directly on TLC plates covered with silica in order to separate the incubation products from the initial substrate. The plates were developed using an ether/petroleum ether/formic acid mixture (50:50:1, v/v/v). The plates were scanned using a radioactivity detector.

[5] = system: ALK4 (Alk4p, cytochrome P450 CYP52); test: In vitro enzymatic assay: conversion of radiolabeled fatty acids by microsomes of S. cerevisiae WAT11 expressing ALK4 (TLC); conditions: gene ALK4, substrate 100 μM, yeast microsomes, NADPH, ND: not detectable
Description: as §1, §2
The reaction mixtures were deposited on TLC plates, and then developed and analyzed. […]
The expression of the proteins of the 6 members of the 6YP52 family cloned was carried out using a heterologous system specifically designed for the expression of cytochrome P450 enzymes, based on the pYeDP60 vector and the Saccharomyces cerevisiae WAT11 strain. […] The volume of buffer used for resuspending the microsomes was determined by the approximate weight of the wet pellet of yeast obtained after growth (1 ml of buffer per 2 g of cell pellet). […]
as §8
The reaction mixtures were deposited directly on TLC plates covered with silica in order to separate the incubation products from the initial substrate. […] The plates were scanned using a radioactivity detector. […]

SMILES | Degree of conversion (%) [1] [%] | Conversion of the fatty acid by Alk5p, in words [1] | Degree of conversion (%) [2] [%] | Conversion of the fatty acid by Alk2p, in words [2] | Degree of conversion (%) [3] | Conversion of the fatty acid by Alk11p, in words [3] | Products of conversion by Alk3p seen in TLC chromatograms ([4]; TLC) | Degree of conversion (%) ([4]; yeast microsomes, TLC) | Reaction product of Alk3p identified by GC-MS (first product peak) [4] | Conversion of the fatty acid by Alk3p, in words ([4]; yeast microsomes, TLC) | Reaction product of Alk3p identified by GC-MS (second peak, diacid) [4] | Degree of conversion (%) [5] [%]
CCCCCCCCCCCC(=O)O [C12:0, lauric acid] | 24 | capable of metabolizing | 7.3 | capable of metabolizing | Traces | capable of metabolizing | two products | 65 | 12-hydroxylauric acid derivative | capable of metabolizing | – | –
CCCCCCCCCCCCCC(=O)O [C14:0, myristic acid] | 27 | – | 1.1 | – | – | – | – | 68 | – | – | – | –
CCCCCCCCCCCCCCCC(=O)O [C16:0, palmitic acid] | 12 | – | 0.5 | – | – | – | – | – | – | – | – | –
CCCCCCCCCCCCCCCCCC(=O)O [C18:0, stearic acid] | 2 | – | – | No significant conversion | – | – | only an w-oxidation product | 3 | 18-hydroxystearic acid derivative | – | – | –
CCCCCCCC/C=C\CCCCCCCC(=O)O [C18:1, oleic acid] | 13 | – | – | – | 2% | – | two products | 27 | 18-hydroxyoleic acid derivative | – | 1,18-octadeca-9-enedioic acid | –
CCCCC/C=C\C/C=C\CCCCCCCC(=O)O [C18:2, linoleic acid] | 11 | – | – | – | 4% | – | two products | 35 | 18-hydroxylinoleic acid derivative | – | 1,18-octadeca-9,12-dienedioic derivative | 3
